From PMC8282797, “Strictly regulated agonist-dependent activation of AMPA-R is the key characteristic of TAK-653 for robust synaptic responses and cognitive improvement” (Scientific Reports, 2021)

Tests used:
naïve rats = test: Novel object recognition (NOR) test; assay type: in vivo, rat; conditions: for NORT (effective doses): summary
Method: NOR tests were performed using male Long-Evans rats at 6 weeks old as previously described, with some modifications. On day 1, rats were allowed to habituate to the empty test box (a gray-colored polyvinyl chloride box (40 × 40 × 50 cm)) for 10 min individually. Testing comprised two 3-min trials called the acquisition trial and the retention trial that were separated by 48 h inter-trial intervals (ITIs). On day 2, in the acquisition trial, rats were allowed to explore two identical objects (A1 and A2) for 3 min. On day 4, in the retention trial, rats were again allowed to explore a familiar object (A3) and a novel object (B) for 3 min. The object exploration was defined as rats' licking, sniffing or touching the object with forelimbs while sniffing. TAK-653 or AMPA was orally or intraperitoneally, respectively, 2 h or 0.5 h prior to the acquisition and the retention trials. The NDI was calculated using the following equation: novel object interaction/total interaction × 100 (%).

AMPA-R = test: Ca2+ influx assay using rat primary hippocampal neurons; assay type: cell-based; parameters: key to Single effect on Ca2+ level: -: No effect or slight effect; +: Potent; ++: Very potent; conditions: for Single effect on Ca2+ level: summary grade
Method: Ca^2+ influx assay using primary neurons was performed as previously described. After 5 days of culture, the cells plated on poly-D-lysine coated 96-well plates (Corning Incorporated) at 2 × 10^4 or 5 × 10^4 cells/well were used for experiments with PF-04958242 or TAK-653, respectively. Fluorescent calcium indicator dye solution (Calcium4 assay Kit, Dojindo, Kumamoto, Japan) in Ca^2+ reaction buffer (DMEM, HEPES and BSA) containing Probenecid (Dojindo) was added and incubated for 60 min in 5% CO2 at 37 °C. After washing once, the relative increases in intracellular Ca^2+ levels stimulated by compounds in the presence and absence of AMPA were monitored. Details are described in the Supplementary Information.
Primary cultures of hippocampal neuronal cells were prepared from fetal Sprague-Dawley rats at 19 days of gestation. Rat embryos were decapitated and their whole brains were isolated. Hippocampi were dissected in ice-cold Hanks' Balanced Salt Solutions (HBSS) under a microscope and then dispersed into cells using a neural cell dispersion kit (Sumitomo Bakelite Co., Ltd., Tokyo, Japan). The dissociated cells were suspended in Neurobasal medium containing B27 supplement (Thermo Fisher Scientific Inc.), 2 mM L-glutamine (Lonza, Basel, Switzerland), 100 U/mL penicillin (Lonza), 100 μg/mL streptomycin (Lonza) and 20 μg/mL gentamicin sulfate (Lonza). The cells were plated on poly-D-lysine coated 96-well plates (Corning Incorporated) for Ca^2+ influx assay or on poly-L-lysine coated 96-well plates (Sumitomo Bakelite) for measurement of BDNF protein levels and cultured in a humidified CO2 incubator with 5% CO2 at 37°C.
After 5 days of culture, the cells at 2×10^4 or 5×10^4 cells/well were used for experiments with PF-04958242 or TAK-653, respectively. For TAK-653, after removal of culture medium, 75 µL of fluorescent calcium indicator dye solution (Calcium4 assay Kit, Dojindo, Kumamoto, Japan) in Ca^2+ reaction buffer (DMEM, 10 mM HEPES and 0.1% BSA) containing 1.25 mM Probenecid (Dojindo) was added and incubated for 60 min in 5% CO2 at 37°C and washed once using 75 µL of fluorescent calcium indicator dye solution. After addition of 75 µL of fluorescent calcium indicator dye solution to each well again, the relative increases in intracellular Ca^2+ levels by compounds in the presence and absence of 5 μM AMPA were monitored for 8.5 min by fluorometric imaging plate reader. Activity of the compound was defined as fluorescence intensity integrated over the entire period of measurement. Intensity of 0% was defined as activity in the presence of only DMSO, while 100% was defined as activity in the presence of 5 μM AMPA and 10 μM HBT1. For PF-04958242, after removal of culture medium, 90 µL of fluorescent calcium indicator dye solution (Calcium4 assay Kit, Dojindo) in Ca^2+ reaction buffer (DMEM, 20 mM HEPES and 0.1% BSA) containing 2.5 mM Probenecid (Dojindo) was added and incubated for 60 min in 5% CO2 at 37°C. After addition of 90 µL of fluorescent calcium indicator dye solution to each well again, the relative increases in intracellular Ca^2+ levels by compounds in the presence and absence of 1 μM AMPA were monitored for 2 min in a microplate reader (CellLux, PerkinElmer, Waltham, MA, USA). Activity of the compound was defined as fluorescence intensity integrated over the entire period of measurement. 100% was defined as activity in the presence of 1 μM AMPA and 10 μM HBT1, while intensity of 0% was defined as activity in the presence of 1 μM AMPA or only DMSO for potentiator effect or agonistic effect, respectively. EC50 values were calculated by logistic regression analysis.

SMILES | Cognitive performance in the NOR test (naïve rats; 0.3 to 3 mg/kg, i.p.) | NORT (effective doses) (naïve rats) | Intracellular Ca2+ levels (AMPA-R; single application) | Single effect on Ca2+ level (AMPA-R) | Novelty discrimination index (NDI) (naïve rats; 0.03, 0.1 and 0.3 mg/kg, p.o., 2 h prior to trials) | Dose improving visual learning and memory in NOR test (naïve rats; p.o., rats) [mg/kg] | Intracellular Ca2+ level, Agonistic effect @30 μM (AMPA-R; absence of AMPA, % of 5 μM AMPA + 10 μM HBT1 response) [%] | EC50 (AMPA-R; in the presence of 5 μM AMPA, read-out: Intracellular Ca2+ level, Potentiation EC50) [nM]
Cc1onc(O)c1CC(N)C(=O)O (stereo not drawn) [AMPA, alpha-amino-3-hydroxy-5-methyl-4-isoxazole-propionic acid] | did not improve | No effect | dose-dependently increased | + |  |  |  | 
CC1=CN2CCS(=O)(=O)N=C2C(c2ccc(OC3CCCCC3)cc2)=N1 [TAK-653, 9-[4-(Cyclohexyloxy)phenyl]-7-methyl-3,4-dihydropyrazino[2,1-c][1,2,4]thiadiazine 2,2-dioxide] |  | Effective (0.03, 0.1, 0.3) |  | ─ | significantly improved | ≥ 0.03 | 4.8 | 930
